From patent US6358885B1, “Substituted phenylheterocyclic herbicides” (Mississippi State University, priority 1992, dated 2002)

Legend:
Assay in all cases: Test B preemergence/postemergence greenhouse plant response rating 0 to 10
[1] = tested on: giant foxtail; format: in vivo, Setaria faberii; details: for Plant response rating, Giant foxtail: 0 to 10 scale
Outline: (§1)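 Test chemicals, dissolved in a non-phytotoxic solvent, were applied to soil at planting and, at the same time, over foliage of seedlings at the one to four leaf stage.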

[2] = tested on: barley; format: in vivo, Hordeum vulgare; details: for Plant response rating, Barley: 0 to 10 scale
Outline: as §1

[3] = tested on: wild buckwheat; format: in vivo, Polygonum convolvulus; details: for Plant response rating, Wild buckwheat: 0 to 10 scale
Outline: as §1

[4] = tested on: bedstraw; format: in vivo, Galium aparine; details: for Plant response rating, Bedstraw: 0 to 10 scale
Outline: as §1

[5] = tested on: rape; format: in vivo, Brassica napus; details: for Plant response rating, Rape: 0 to 10 scale
Outline: as §1

[6] = tested on: blackgrass; format: in vivo, Alopecurus myosuroides; details: for Plant response rating, Blackgrass: 0 to 10 scale
Outline: as §1

[7] = tested on: chickweed; format: in vivo, Stellaria media; details: for Plant response rating, Chickweed: 0 to 10 scale
Outline: as §1

[8] = tested on: lambsquarters; format: in vivo, Chenopodium album; details: for Plant response rating, Lambsquarter: 0 to 10 scale
Outline: as §1

[9] = tested on: morningglory; format: in vivo, Ipomoea hederacea; details: for Plant response rating, Morningglory: 0 to 10 scale
Outline: as §1

[10] = tested on: corn; format: in vivo, Zea mays; details: for Plant response rating, Corn: 0 to 10 scale
Outline: as §1

[11] = tested on: velvetleaf; format: in vivo, Abutilon theophrasti; details: for Plant response rating, Velvetleaf: 0 to 10 scale
Outline: as §1

[12] = tested on: soybean; format: in vivo, Glycine max; details: for Plant response rating, Soybean: 0 to 10 scale
Outline: as §1

[13] = tested on: barnyardgrass; format: in vivo, Echinochloa crus-galli; details: for Plant response rating, Barnyardgrass: 0 to 10 scale
Outline: as §1

[14] = tested on: sugar beet; format: in vivo, Beta vulgaris; details: for Plant response rating, Sugar beet: 0 to 10 scale
Outline: as §1

[15] = tested on: cheatgrass; format: in vivo, Bromus secalinus; details: for Plant response rating, Cheatgrass: 0 to 10 scale
Outline: as §1

[16] = tested on: rice; format: in vivo, Oryza sativa; details: for Plant response rating, Rice: 0 to 10 scale
Outline: as §1

[17] = tested on: cocklebur; format: in vivo, Xanthium pensylvanicum; details: for Plant response rating, Cocklebur: 0 to 10 scale
Outline: as §1

[18] = tested on: cotton; format: in vivo, Gossypium hirsutum; details: for Plant response rating, Cotton: 0 to 10 scale
Outline: as §1

[19] = tested on: sorghum; format: in vivo, Sorghum bicolor; details: for Plant response rating, Sorghum: 0 to 10 scale
Outline: as §1

[20] = tested on: crabgrass; format: in vivo, Digitaria spp.; details: for Plant response rating, Crabgrass: 0 to 10 scale
Outline: as §1

[21] = tested on: wheat; format: in vivo, Triticum aestivum; details: for Plant response rating, Wheat: 0 to 10 scale
Outline: as §1

[22] = tested on: wild oat; format: in vivo, Avena fatua; details: for Plant response rating, Wild oat: 0 to 10 scale
Outline: as §1

[23] = tested on: purple nutsedge; format: in vivo, Cyperus rotundus; details: for Plant response rating, Nutsedge: 0 to 10 scale
Outline: as §1

SMILES: Oc1cc(-c2nn3c(c2Br)CCCC3)c(F)cc1Cl [Compound 81]
- Plant response rating, Giant foxtail ([1]; POSTEMERGENCE, Rate 50 g/ha): 4
- Plant response rating, Giant foxtail ([1]; PREEMERGENCE, Rate 50 g/ha): 0
- Plant response rating (0 to 10 scale), Giant foxtail ([1]; PREEMERGENCE, Rate 200 g/ha): 2
- Plant response rating, Giant foxtail ([1]; Rate 200 g/ha, POSTEMERGENCE): 8
- Plant response rating, Barley ([2]; POSTEMERGENCE, Rate 50 g/ha): 3
- Plant response rating, Barley ([2]; PREEMERGENCE, Rate 50 g/ha): 0
- Plant response rating (0 to 10 scale), Barley ([2]; PREEMERGENCE, Rate 200 g/ha): 0
- Plant response rating, Barley ([2]; Rate 200 g/ha, POSTEMERGENCE): 3
- Plant response rating, Wild buckwheat ([3]; POSTEMERGENCE, Rate 50 g/ha): 10
- Plant response rating, Wild buckwheat ([3]; PREEMERGENCE, Rate 50 g/ha): 0
- Plant response rating (0 to 10 scale), Wild buckwheat ([3]; PREEMERGENCE, Rate 200 g/ha): 10
- Plant response rating, Wild buckwheat ([3]; Rate 200 g/ha, POSTEMERGENCE): 10
- Plant response rating, Bedstraw ([4]; POSTEMERGENCE, Rate 50 g/ha): 9
- Plant response rating, Bedstraw ([4]; PREEMERGENCE, Rate 50 g/ha): 0
- Plant response rating (0 to 10 scale), Bedstraw ([4]; PREEMERGENCE, Rate 200 g/ha): 9
- Plant response rating, Bedstraw ([4]; Rate 200 g/ha, POSTEMERGENCE): 10
- Plant response rating, Rape ([5]; POSTEMERGENCE, Rate 50 g/ha): 3
- Plant response rating, Rape ([5]; PREEMERGENCE, Rate 50 g/ha): 0
- Plant response rating (0 to 10 scale), Rape ([5]; PREEMERGENCE, Rate 200 g/ha): 7
- Plant response rating, Rape ([5]; Rate 200 g/ha, POSTEMERGENCE): 7
- Plant response rating, Blackgrass ([6]; POSTEMERGENCE, Rate 50 g/ha): 2
- Plant response rating, Blackgrass ([6]; PREEMERGENCE, Rate 50 g/ha): 0
- Plant response rating (0 to 10 scale), Blackgrass ([6]; PREEMERGENCE, Rate 200 g/ha): 3
- Plant response rating, Blackgrass ([6]; Rate 200 g/ha, POSTEMERGENCE): 4
- Plant response rating, Chickweed ([7]; POSTEMERGENCE, Rate 50 g/ha): 2
- Plant response rating, Chickweed ([7]; PREEMERGENCE, Rate 50 g/ha): 0
- Plant response rating (0 to 10 scale), Chickweed ([7]; PREEMERGENCE, Rate 200 g/ha): 9
- Plant response rating, Chickweed ([7]; Rate 200 g/ha, POSTEMERGENCE): 3
- Plant response rating, Lambsquarter ([8]; POSTEMERGENCE, Rate 50 g/ha): 10
- Plant response rating, Lambsquarter ([8]; PREEMERGENCE, Rate 50 g/ha): 9
- Plant response rating (0 to 10 scale), Lambsquarter ([8]; PREEMERGENCE, Rate 200 g/ha): 10
- Plant response rating, Lambsquarter ([8]; Rate 200 g/ha, POSTEMERGENCE): 10
- Plant response rating, Morningglory ([9]; POSTEMERGENCE, Rate 50 g/ha): 9
- Plant response rating, Morningglory ([9]; PREEMERGENCE, Rate 50 g/ha): 0
- Plant response rating (0 to 10 scale), Morningglory ([9]; PREEMERGENCE, Rate 200 g/ha): 0
- Plant response rating, Morningglory ([9]; Rate 200 g/ha, POSTEMERGENCE): 10
- Plant response rating, Corn ([10]; POSTEMERGENCE, Rate 50 g/ha): 2
- Plant response rating, Corn ([10]; PREEMERGENCE, Rate 50 g/ha): 0
- Plant response rating (0 to 10 scale), Corn ([10]; PREEMERGENCE, Rate 200 g/ha): 0
- Plant response rating, Corn ([10]; Rate 200 g/ha, POSTEMERGENCE): 3
- Plant response rating, Velvetleaf ([11]; POSTEMERGENCE, Rate 50 g/ha): 9
- Plant response rating, Velvetleaf ([11]; PREEMERGENCE, Rate 50 g/ha): 3
- Plant response rating (0 to 10 scale), Velvetleaf ([11]; PREEMERGENCE, Rate 200 g/ha): 10
- Plant response rating, Velvetleaf ([11]; Rate 200 g/ha, POSTEMERGENCE): 10
- Plant response rating, Soybean ([12]; POSTEMERGENCE, Rate 50 g/ha): 6
- Plant response rating, Soybean ([12]; PREEMERGENCE, Rate 50 g/ha): 0
- Plant response rating (0 to 10 scale), Soybean ([12]; PREEMERGENCE, Rate 200 g/ha): 0
- Plant response rating, Soybean ([12]; Rate 200 g/ha, POSTEMERGENCE): 7
- Plant response rating, Barnyardgrass ([13]; POSTEMERGENCE, Rate 50 g/ha): 8
- Plant response rating, Barnyardgrass ([13]; PREEMERGENCE, Rate 50 g/ha): 0
- Plant response rating (0 to 10 scale), Barnyardgrass ([13]; PREEMERGENCE, Rate 200 g/ha): 0
- Plant response rating, Barnyardgrass ([13]; Rate 200 g/ha, POSTEMERGENCE): 7
- Plant response rating, Sugar beet ([14]; POSTEMERGENCE, Rate 50 g/ha): 10
- Plant response rating, Sugar beet ([14]; PREEMERGENCE, Rate 50 g/ha): 0
- Plant response rating (0 to 10 scale), Sugar beet ([14]; PREEMERGENCE, Rate 200 g/ha): 9
- Plant response rating, Sugar beet ([14]; Rate 200 g/ha, POSTEMERGENCE): 10
- Plant response rating, Cheatgrass ([15]; POSTEMERGENCE, Rate 50 g/ha): 3
- Plant response rating, Cheatgrass ([15]; PREEMERGENCE, Rate 50 g/ha): 0
- Plant response rating (0 to 10 scale), Cheatgrass ([15]; PREEMERGENCE, Rate 200 g/ha): 4
- Plant response rating, Cheatgrass ([15]; Rate 200 g/ha, POSTEMERGENCE): 4
- Plant response rating, Rice ([16]; POSTEMERGENCE, Rate 50 g/ha): 6
- Plant response rating, Rice ([16]; PREEMERGENCE, Rate 50 g/ha): 0
- Plant response rating (0 to 10 scale), Rice ([16]; PREEMERGENCE, Rate 200 g/ha): 0
- Plant response rating, Rice ([16]; Rate 200 g/ha, POSTEMERGENCE): 6
- Plant response rating, Cocklebur ([17]; POSTEMERGENCE, Rate 50 g/ha): 8
- Plant response rating, Cocklebur ([17]; PREEMERGENCE, Rate 50 g/ha): 0
- Plant response rating (0 to 10 scale), Cocklebur ([17]; PREEMERGENCE, Rate 200 g/ha): 0
- Plant response rating, Cocklebur ([17]; Rate 200 g/ha, POSTEMERGENCE): 10
- Plant response rating, Cotton ([18]; POSTEMERGENCE, Rate 50 g/ha): 10
- Plant response rating, Cotton ([18]; PREEMERGENCE, Rate 50 g/ha): 0
- Plant response rating (0 to 10 scale), Cotton ([18]; PREEMERGENCE, Rate 200 g/ha): 0
- Plant response rating, Cotton ([18]; Rate 200 g/ha, POSTEMERGENCE): 10
- Plant response rating, Sorghum ([19]; POSTEMERGENCE, Rate 50 g/ha): 3
- Plant response rating, Sorghum ([19]; PREEMERGENCE, Rate 50 g/ha): 0
- Plant response rating (0 to 10 scale), Sorghum ([19]; PREEMERGENCE, Rate 200 g/ha): 0
- Plant response rating, Sorghum ([19]; Rate 200 g/ha, POSTEMERGENCE): 3
- Plant response rating, Crabgrass ([20]; POSTEMERGENCE, Rate 50 g/ha): 4
- Plant response rating, Crabgrass ([20]; PREEMERGENCE, Rate 50 g/ha): 0
- Plant response rating (0 to 10 scale), Crabgrass ([20]; PREEMERGENCE, Rate 200 g/ha): 0
- Plant response rating, Crabgrass ([20]; Rate 200 g/ha, POSTEMERGENCE): 6
- Plant response rating, Wheat ([21]; POSTEMERGENCE, Rate 50 g/ha): 3
- Plant response rating, Wheat ([21]; PREEMERGENCE, Rate 50 g/ha): 0
- Plant response rating (0 to 10 scale), Wheat ([21]; PREEMERGENCE, Rate 200 g/ha): 2
- Plant response rating, Wheat ([21]; Rate 200 g/ha, POSTEMERGENCE): 4
- Plant response rating, Wild oat ([22]; POSTEMERGENCE, Rate 50 g/ha): 2
- Plant response rating, Wild oat ([22]; PREEMERGENCE, Rate 50 g/ha): 0
- Plant response rating (0 to 10 scale), Wild oat ([22]; PREEMERGENCE, Rate 200 g/ha): 3
- Plant response rating, Wild oat ([22]; Rate 200 g/ha, POSTEMERGENCE): 3
- Plant response rating, Nutsedge ([23]; PREEMERGENCE, Rate 50 g/ha): 0
- Plant response rating (0 to 10 scale), Nutsedge ([23]; PREEMERGENCE, Rate 200 g/ha): 0
- Plant response rating, Nutsedge ([23]; Rate 200 g/ha, POSTEMERGENCE): 3
